Target: T1, human mAChR M4 (Homo sapiens, UniProt P08173)
T1 construct: expressed in transfected cells; host or cells: CHO-K1 (ATCC), stably expressing hM4 and Gqi5
T1 sequence (P08173 1-479): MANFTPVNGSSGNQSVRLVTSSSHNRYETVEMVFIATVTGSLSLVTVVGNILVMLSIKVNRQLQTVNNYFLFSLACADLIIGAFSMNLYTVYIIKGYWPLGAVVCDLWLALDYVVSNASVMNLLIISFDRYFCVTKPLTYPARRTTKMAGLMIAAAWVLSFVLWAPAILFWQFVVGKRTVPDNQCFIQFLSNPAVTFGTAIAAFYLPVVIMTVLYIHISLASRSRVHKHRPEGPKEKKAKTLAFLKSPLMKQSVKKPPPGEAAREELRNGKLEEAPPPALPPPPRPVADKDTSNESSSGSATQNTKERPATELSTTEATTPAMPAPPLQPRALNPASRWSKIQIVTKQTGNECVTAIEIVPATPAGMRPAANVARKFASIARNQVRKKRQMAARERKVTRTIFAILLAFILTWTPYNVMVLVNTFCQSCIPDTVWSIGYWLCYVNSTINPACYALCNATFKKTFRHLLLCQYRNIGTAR
Assay: mAChR M4 cell-based functional assay: calcium flux (Fluo-4, FDSS), positive allosteric modulator activity on the EC20 acetylcholine response, hM4-Gqi5 CHO-K1 cells
Details: for Emax at 30 µM: CHO-K1, human M4, % ACh maximum at 30 μM; for EC50: human M4, PAM activity on EC20 acetylcholine response, calcium flux, read-out: Human M4 EC50
How it was run: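 CHO-K1 cells stably expressing human M4 with chimeric Gqi5, loaded with Fluo-4 AM for 50 min at 37° C. Compounds (11-point, 1:3 dilutions) added first, then an acetylcholine EC20 at 144 s; calcium read on FDSS at 1 Hz. EC50 is the half-maximal increase above the EC20 baseline, four-parameter logistic fit.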

Emax at 30 µM | EC50 | SMILES
87% | 0.83 µM | Cc1nc(N2CCc3ncc(-c4cc(C(F)(F)F)nn4C)cc3C2)c2cc(Cl)ccc2n1 [Compound 257, 6-chloro-2-methyl-4-(3-(1-methyl-3-(trifluoromethyl)-1H-pyrazol-5-yl)-7,8-dihydro-1,6-naphthyridin-6(5H)-yl)quinazoline]
93% | 0.18 µM | C[C@@H]1CN(c2ncnc3cc(F)c(F)cc23)Cc2cc(N3CCOCC3)cnc21 [Compound 258, (R)-4-(6-(6,7-difluoroquinazolin-4-yl)-8-methyl-5,6,7,8-tetrahydro-1,6-naphthyridin-3-yl)morpholine]
91% | 0.2 µM | C[C@@H]1CN(c2ncnc3ccc(F)cc23)Cc2cc(N3CCOCC3)cnc21 [Compound 259, (R)-4-(6-(6-fluoroquinazolin-4-yl)-8-methyl-5,6,7,8-tetrahydro-1,6-naphthyridin-3-yl)morpholine]
107% | 0.12 µM | C[C@@H]1CN(c2ncnc3ccc(Cl)cc23)Cc2cc(N3CCOCC3)cnc21 [Compound 260, (R)-4-(6-(6-chloroquinazolin-4-yl)-8-methyl-5,6,7,8-tetrahydro-1,6-naphthyridin-3-yl)morpholine]
79% | 0.44 µM | C[C@H]1CN(c2ncnc3cc(F)c(F)cc23)Cc2cc(N3CCOCC3)cnc21 [Compound 261, (S)-4-(6-(6,7-difluoroquinazolin-4-yl)-8-methyl-5,6,7,8-tetrahydro-1,6-naphthyridin-3-yl)morpholine]
73% | 0.26 µM | C[C@H]1CN(c2ncnc3ccc(F)cc23)Cc2cc(N3CCOCC3)cnc21 [Compound 262, (S)-4-(6-(6-fluoroquinazolin-4-yl)-8-methyl-5,6,7,8-tetrahydro-1,6-naphthyridin-3-yl)morpholine]
88% | 0.16 µM | C[C@H]1CN(c2ncnc3ccc(Cl)cc23)Cc2cc(N3CCOCC3)cnc21 [Compound 263, (S)-4-(6-(6-chloroquinazolin-4-yl)-8-methyl-5,6,7,8-tetrahydro-1,6-naphthyridin-3-yl)morpholine]
82% | 0.14 µM | CC(C)n1nccc1-c1cnc2c(c1)CN(c1ncnc3ccc(F)cc13)CC2 [Compound 264, 6-fluoro-4-(3-(1-isopropyl-1H-pyrazol-5-yl)-7,8-dihydro-1,6-naphthyridin-6(5H)-yl)quinazoline]
76% | 0.5 µM | Fc1ccc2ncnc(N3CCc4ncc(-c5ccnn5C5COC5)cc4C3)c2c1 [Compound 265, 6-fluoro-4-(3-(1-(oxetan-3-yl)-1H-pyrazol-5-yl)-7,8-dihydro-1,6-naphthyridin-6(5H)-yl)quinazoline]
90% | 0.06 µM | Cc1cnn(C)c1-c1cnc2c(c1)CN(c1ncnc3ccc(F)cc13)CC2 [Compound 266, 4-(3-(1,4-dimethyl-1H-pyrazol-5-yl)-7,8-dihydro-1,6-naphthyridin-6(5H)-yl)-6-fluoroquinazoline]
81% | 0.2 µM | Cn1nc(C(F)(F)F)cc1-c1cnc2c(c1)CN(c1ncnc3ccc(F)cc13)CC2 [Compound 267, 6-fluoro-4-(3-(1-methyl-3-(trifluoromethyl)-1H-pyrazol-5-yl)-7,8-dihydro-1,6-naphthyridin-6(5H)-yl)quinazoline]
85% | 0.19 µM | CC(C)n1nccc1-c1cnc2c(c1)CN(c1ncnc3cc(F)c(F)cc13)CC2 [Compound 268, 6,7-difluoro-4-(3-(1-isopropyl-1H-pyrazol-5-yl)-7,8-dihydro-1,6-naphthyridin-6(5H)-yl)quinazoline]
79% | 1.6 µM | Fc1cc2ncnc(N3CCc4ncc(-c5ccnn5C5COC5)cc4C3)c2cc1F [Compound 269, 6,7-difluoro-4-(3-(1-(oxetan-3-yl)-1H-pyrazol-5-yl)-7,8-dihydro-1,6-naphthyridin-6(5H)-yl)quinazoline]
86% | 0.1 µM | Cc1cnn(C)c1-c1cnc2c(c1)CN(c1ncnc3cc(F)c(F)cc13)CC2 [Compound 270, 4-(3-(1,4-dimethyl-1H-pyrazol-5-yl)-7,8-dihydro-1,6-naphthyridin-6(5H)-yl)-6,7-difluoroquinazoline]
80% | 0.95 µM | Cn1nc(C(F)(F)F)cc1-c1cnc2c(c1)CN(c1ncnc3cc(F)c(F)cc13)CC2 [Compound 271, 6,7-difluoro-4-(3-(1-methyl-3-(trifluoromethyl)-1H-pyrazol-5-yl)-7,8-dihydro-1,6-naphthyridin-6(5H)-yl)quinazoline]
92% | 1.15 µM | CN1CCN(c2cnc3c(c2)CN(c2ncnc4ccc(F)cc24)CC3)CC1=O [Compound 272, 4-(6-(6-fluoroquinazolin-4-yl)-5,6,7,8-tetrahydro-1,6-naphthyridin-3-yl)-1-methylpiperazin-2-one]
84% | 0.88 µM | CN1CCN(c2cnc3c(c2)CN(c2ncnc4cc(F)c(F)cc24)CC3)CC1=O [Compound 273, 4-(6-(6,7-difluoroquinazolin-4-yl)-5,6,7,8-tetrahydro-1,6-naphthyridin-3-yl)-1-methylpiperazin-2-one]
82% | 0.65 µM | Cc1nc(N2CCc3ncc(N4CCN(C)C(=O)C4)cc3C2)c2cc(Cl)ccc2n1 [Compound 274, 4-(6-(6-chloro-2-methylquinazolin-4-yl)-5,6,7,8-tetrahydro-1,6-naphthyridin-3-yl)-1-methylpiperazin-2-one]
73% | 2.24 µM | Fc1ccc2ncnc(N3CCc4ncc(N5CCCn6ccnc65)cc4C3)c2c1 [Compound 275, 4-(3-(6,7-dihydroimidazo[1,2-a]pyrimidin-8(5H)-yl)-7,8-dihydro-1,6-naphthyridin-6(5H)-yl)-6-fluoroquinazoline]
96% | 0.32 µM | Fc1ccc2ncnc(N3CCc4ncc(N5CCCn6nc(C(F)(F)F)cc65)cc4C3)c2c1 [Compound 276, 6-fluoro-4-(3-(2-(trifluoromethyl)-6,7-dihydropyrazolo[1,5-a]pyrimidin-4(5H)-yl)-7,8-dihydro-1,6-naphthyridin-6(5H)-yl)quinazoline]
67% | 2.63 µM | Fc1cc2ncnc(N3CCc4ncc(N5CCCn6ccnc65)cc4C3)c2cc1F [Compound 277, 4-(3-(6,7-dihydroimidazo[1,2-a]pyrimidin-8(5H)-yl)-7,8-dihydro-1,6-naphthyridin-6(5H)-yl)-6,7-difluoroquinazoline]
76% | 0.41 µM | Fc1cc2ncnc(N3CCc4ncc(N5CCCn6nc(C(F)(F)F)cc65)cc4C3)c2cc1F [Compound 278, 6,7-difluoro-4-(3-(2-(trifluoromethyl)-6,7-dihydropyrazolo[1,5-a]pyrimidin-4(5H)-yl)-7,8-dihydro-1,6-naphthyridin-6(5H)-yl)quinazoline]
72% | 0.81 µM | CC(C)(C)c1cc2n(n1)CCCN2c1cnc2c(c1)CN(c1ncnc3ccc(F)cc13)CC2 [Compound 279, 4-(3-(2-(tert-butyl)-6,7-dihydropyrazolo[1,5-a]pyrimidin-4(5H)-yl)-7,8-dihydro-1,6-naphthyridin-6(5H)-yl)-6-fluoroquinazoline]
